Measurements taken from US20180273482A1, “COMPOSITIONS AND METHODS FOR INCREASING, OR PREVENTING OR REVERSING LOSS OF, SKIN PIGMENTATION IN A MAMMALIAN SUBJECT” (THE TRUSTEES OF THE UNIVERSITY OF PENNSYLVANIA, priority 2015, published 2018).

Tested on: C57BL/6 mice ear skin
Assay: Topical G-1 treatment of mouse ear skin
Assay type: in vivo
Conditions: 2% G-1 topical, 3 weeks
Experimental: 2×10^5 melanocytes were seeded uniformly on 6-well tissue culture plates. […] For tissue melanin assays, tissue was weighed prior to boiling in 1M NaOH for 20 minutes.
2% (w/v) G-1 was prepared in DMSO. 20 μL of this solution was applied daily to the right ear, with vehicle only applied to the left ear, of 4-week-old C57BL/6 mice. These studies were performed without inclusion/exclusion criteria, randomization, or blinding. Based on a two-fold anticipated effect, this experiment was performed with 3 biological replicates.

## CC(=O)c1ccc2c(c1)[C@@H]1C=CC[C@@H]1[C@H](c1cc3c(cc1Br)OCO3)N2 (racemic) [G-1, rel-1-[4-(6-bromo-1,3-benzodioxol-5-yl)-3aR,4S,5,9bS-tetrahydro-3H-cyclopenta[c]quinolin-8-yl]-ethanone]
  pigment in treated ears compared to vehicle: increased pigment
Right ear, whole ear tissue melanin assay
  melanin content of treated tissue vs controls: 1.6 fold
